In PubChem BioAssay AID743409 (Vanderbilt Specialized Chemistry Center, 2014):
Several values for one entry are separate records, joined by “and”; a condition that tells them apart may be missing. Equal values may be shown once. Activity calls are given as the source filed them. The rule behind the calls is not given here.

Target: Phospholipase D2 (Homo sapiens) (UniProt O14939)
Assay: cellular phospholipase D2 activity inhibition – cell-based (AID 743409)
Conditions: cellular PLD2 isoenzyme activity, at 2 µM, hits give high values

Chain of Phospholipase D2 (Homo sapiens) (O14939 whole entry, looked up): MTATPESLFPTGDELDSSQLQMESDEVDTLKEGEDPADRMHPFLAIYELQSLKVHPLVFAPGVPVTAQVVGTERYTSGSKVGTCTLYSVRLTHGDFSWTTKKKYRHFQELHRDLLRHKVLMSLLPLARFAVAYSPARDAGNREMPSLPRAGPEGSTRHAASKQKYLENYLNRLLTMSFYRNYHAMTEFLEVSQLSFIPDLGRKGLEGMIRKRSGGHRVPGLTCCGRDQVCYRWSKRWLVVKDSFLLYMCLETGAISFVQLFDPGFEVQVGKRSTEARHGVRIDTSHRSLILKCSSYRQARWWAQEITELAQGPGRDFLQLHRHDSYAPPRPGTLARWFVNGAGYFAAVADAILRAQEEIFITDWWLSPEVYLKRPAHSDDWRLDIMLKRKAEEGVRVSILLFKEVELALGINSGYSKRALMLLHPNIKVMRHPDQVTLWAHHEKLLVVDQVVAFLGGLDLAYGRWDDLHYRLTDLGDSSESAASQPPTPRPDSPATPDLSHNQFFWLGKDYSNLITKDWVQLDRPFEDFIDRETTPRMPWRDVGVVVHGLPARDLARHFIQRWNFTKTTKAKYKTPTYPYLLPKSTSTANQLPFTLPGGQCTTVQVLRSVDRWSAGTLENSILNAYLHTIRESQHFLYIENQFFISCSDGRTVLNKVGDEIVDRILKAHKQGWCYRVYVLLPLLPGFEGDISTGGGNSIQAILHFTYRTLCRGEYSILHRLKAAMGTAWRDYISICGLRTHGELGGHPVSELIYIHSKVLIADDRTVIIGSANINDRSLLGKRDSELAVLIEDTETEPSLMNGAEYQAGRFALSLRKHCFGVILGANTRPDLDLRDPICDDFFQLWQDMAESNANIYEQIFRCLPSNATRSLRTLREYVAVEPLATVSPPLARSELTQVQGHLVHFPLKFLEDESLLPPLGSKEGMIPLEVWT

SMILES	inhibition
O=C(NCCN1CCC2(CC1)C(=O)NCN2c1cncc(F)c1)c1ccc2ccccc2c1	18% (inactive)
O=C(NCCN1CCC2(CC1)C(=O)NCN2Cc1cccnc1)c1cc2ccccc2[nH]1	100%
O=C(NCCN1CCC2(CC1)C(=O)NCN2Cc1cccnc1)c1ccc(F)cc1F	0% (inactive)
O=C(NCCN1CCC2(CC1)C(=O)NCN2c1cccnc1)c1cc(F)c(F)c(F)c1	0% (inactive)
O=C(NCCN1CCC2(CC1)C(=O)NCN2c1cncc(F)c1)c1ccc(F)cc1	3% (inactive)
O=C(NCCN1CCC2(CC1)C(=O)NCN2c1cccnc1)c1ccc(Br)cc1	0% (inactive)
O=C(NCCN1CCC2(CC1)C(=O)NCN2Cc1cccnc1)c1ccc(Br)cc1	48% (inactive)
O=C(NCCN1CCC2(CC1)C(=O)NCN2Cc1cccnc1)c1nc(-c2ccc(F)cc2)no1	17% (inactive)
O=C(NCCN1CCC2(CC1)C(=O)NCN2Cc1cccnc1)c1ccc2ccccc2c1Br	61%
O=C(NCCN1CCC2(CC1)C(=O)NCN2Cc1cccnc1)c1ccc2ccccc2c1	80%
O=C(NCCN1CCC2(CC1)C(=O)NCN2Cc1cccnc1)c1cc2ccccc2o1	73%
COc1cc(C(=O)NCCN2CCC3(CC2)C(=O)NCN3Cc2cccnc2)cc(OC)c1OC	15% (inactive)
O=C(NCCN1CCC2(CC1)C(=O)NCN2Cc1cccnc1)c1cccc2cccnc12	42% (inactive)
Cn1cc(C(=O)NCCN2CCC3(CC2)C(=O)NCN3Cc2cccnc2)c2ccccc21	31% (inactive)
O=C(NCCN1C=CC2(CC1)C(=O)NCN2Cc1cccnc1)c1cccc2nsnc12 (centres undefined)	4% (inactive)
Cc1cc(C)c2cc(C(=O)NCCN3CCC4(CC3)C(=O)NCN4Cc3cccnc3)[nH]c2c1	35% (inactive)
O=C(NCCN1CCC2(CC1)C(=O)NCN2c1cccnc1)c1ccc(F)cc1	2% (inactive)
O=C(NCCN1CCC2(CC1)C(=O)NCN2c1ccnc(Cl)c1)c1ccc2ccccc2c1	11% (inactive)
O=C(NCCN1CCC2(CC1)C(=O)NCN2c1cccnc1)c1ccc2ccccc2c1	0% (inactive)
O=C(NCCN1CCC2(CC1)C(=O)NCN2Cc1cccnc1)c1ccnc2ccccc12	0% (inactive)
O=C(NCCN1CCC2(CC1)C(=O)NCN2Cc1cccnc1)c1ccc(Cl)cc1F	18% (inactive)

SMILES	inhibition
O=C(NCCN1CCC2(CC1)C(=O)NCN2Cc1cccnc1)c1c(F)ccc(Cl)c1F	18% (inactive)
O=C(NCCN1CCC2(CC1)C(=O)NCN2c1cncc(F)c1)c1cc(F)c(F)c(F)c1	2% (inactive)
O=C(NCCN1CCC2(CC1)C(=O)NCN2Cc1cccnc1)c1sc2ncccc2c1-n1cccc1	5% (inactive)
O=C(NCCN1CCC2(CC1)C(=O)NCN2Cc1cccnc1)c1cccs1	0%
O=C(NCCN1CCC2(CC1)C(=O)NCN2Cc1cccnc1)c1cc2cccnc2[nH]1	19% (inactive)
O=C(NCCN1CCC2(CC1)C(=O)NCN2Cc1cccnc1)c1ccc(F)cc1	11% (inactive)
O=C(NCCN1CCC2(CC1)C(=O)NCN2c1ccc(C(F)(F)F)nc1)c1ccc2ccccc2c1	4% (inactive)
O=C(NCCN1CCC2(CC1)C(=O)NCN2c1cncc(F)c1)c1ccc(F)c(F)c1	0% (inactive)
Cc1ccc(S(=O)(=O)NCCN2CCC3(CC2)C(=O)NCN3Cc2cccnc2)cc1	10% (inactive)
O=C(NCCN1CCC2(CC1)C(=O)NCN2c1cncc(F)c1)c1ccc(Br)cc1	15% (inactive)
O=C(NCCN1CCC2(CC1)C(=O)NCN2Cc1cccnc1)c1cc(F)c(F)c(F)c1	10% (inactive)
O=C(NCCN1CCC2(CC1)C(=O)NCN2Cc1cccnc1)c1nccc2ccccc12	32% (inactive)
O=C(NCCN1CCC2(CC1)C(=O)NCN2c1cncc(Br)c1)c1ccc2ccccc2c1	26% (inactive)
O=C(NCCN1CCC2(CC1)C(=O)NCN2Cc1cccnc1)c1cc(F)cc(F)c1	4% (inactive)
O=C(NCCN1CCC2(CC1)C(=O)NCN2Cc1cccnc1)c1ccccc1F	0% (inactive)
Cn1c(C(=O)NCCN2CCC3(CC2)C(=O)NCN3Cc2cccnc2)cc2ccccc21	14% (inactive)
O=C(NCCN1CCC2(CC1)C(=O)NCN2c1ccnc(F)c1)c1ccc2ccccc2c1	15% (inactive)
O=C(NCCN1CCC2(CC1)C(=O)NCN2Cc1cccnc1)c1cccc(F)c1	14% (inactive)
O=C(NCCN1CCC2(CC1)C(=O)NCN2Cc1cccnc1)c1ccc(SC(F)(F)F)cc1	8% (inactive)
Cc1cc(Br)cnc1C(=O)NCCN1CCC2(CC1)C(=O)NCN2Cc1cccnc1	1% (inactive)
O=C(NCCN1CCC2(CC1)C(=O)NCN2Cc1cccnc1)c1ccc2ccccc2n1	31% (inactive)

SMILES	inhibition
O=C(NCCN1CCC2(CC1)C(=O)NCN2Cc1cccnc1)c1ccc(C(F)(F)F)cc1	5% (inactive)
O=C(NCCN1CCC2(CC1)C(=O)NCN2Cc1cccnc1)[C@@H]1C[C@H]1c1ccccc1	20% (inactive)
O=C(NCCN1CCC2(CC1)C(=O)NCN2Cc1cccnc1)c1ccc2cc(F)ccc2c1	36% (inactive)
O=C(NCCN1CCC2(CC1)C(=O)NCN2Cc1cccnc1)c1ccc(Cl)c(Cl)c1	63% (inactive)
O=C(NCCN1CCC2(CC1)C(=O)NCN2Cc1cccnc1)c1c[nH]c2ccccc12	23% (inactive)
O=C(NCCN1CCC2(CC1)C(=O)NCN2Cc1cccnc1)c1ccc(Cl)cc1Cl	0% (inactive)
O=C(NCCN1CCC2(CC1)C(=O)NCN2Cc1cccnc1)c1ccc(F)c(F)c1	22% (inactive)
O=C(NCCN1CCC2(CC1)C(=O)NCN2Cc1cccnc1)c1cccc(C(F)(F)F)c1	0% (inactive)
O=C(NCCN1CCC2(CC1)C(=O)NCN2Cc1cccnc1)c1cccc(Cl)c1	21% (inactive)
O=C(NCCN1CCC2(CC1)C(=O)NCN2Cc1cccnc1)c1ccc2c(c1)C(=O)NC2=O	0% (inactive)
O=C(NCCN1CCC2(CC1)C(=O)NCN2Cc1cccnc1)c1ccc(F)cc1Cl	0% (inactive)
O=C(NCCN1CCC2(CC1)C(=O)NCN2c1cccnc1)c1ccc(F)c(F)c1	7% (inactive)
O=C(NCCN1CCC2(CC1)C(=O)NCN2Cc1cccnc1)c1cc2cc(F)ccc2[nH]1	100%
O=C(NCCN1CCC2(CC1)C(=O)NCN2c1cccnc1)c1cc2cc(F)ccc2[nH]1	12% (inactive)
Cc1cc(N2CNC(=O)C23CCN(CCNC(=O)c2ccc4ccccc4c2)CC3)ccn1	0% (inactive)
O=C(NCCN1CCC2(CC1)C(=O)NCN2Cc1cccnc1)c1c(Cl)cncc1Cl	3% (inactive)
O=C(NCCN1CCC2(CC1)C(=O)NCN2Cc1cccnc1)c1ccc(F)cc1C(F)(F)F	0% (inactive)
O=C(NCCN1CCC2(CC1)C(=O)NCN2c1cncc(F)c1)c1cc2cc(F)ccc2[nH]1	15% (inactive)
Cc1nc2sc(C(=O)NCCN3CCC4(CC3)C(=O)NCN4Cc3cccnc3)c(N)c2c(C)c1C	8% (inactive)

Same assay, conditions: cellular PLD2 isoenzyme activity, at 20 µM, hits give high values

SMILES	inhibition
O=C(NCCN1CCC2(CC1)C(=O)NCN2Cc1cccc(OC(F)(F)F)c1)c1ccc2ccccc2c1	46% (inactive)
O=C(NCCN1CCC2(CC1)C(=O)NCN2Cc1cccnc1)c1ccc2ccccc2c1	100%
O=C(NCCN1CCC2(CC1)C(=O)NCN2Cc1ccccn1)c1ccc2ccccc2c1	100%
O=C(NCCN1CCC2(CC1)C(=O)NCN2C(=O)C1CCC1)c1ccc2ccccc2c1	100%
O=C(NCCN1CCC2(CC1)C(=O)NCN2Cc1cccc(Cl)c1)c1ccc2ccccc2c1	100%
O=C(NCCN1CCC2(CC1)C(=O)NCN2Cc1ccc(Cl)cc1)c1ccc2ccccc2c1	96%
O=C(NCCN1CCC2(CC1)C(=O)NCN2Cc1ccccc1)c1ccc2ccccc2c1	99%
O=C(NCCN1CCC2(CC1)C(=O)NCN2Cc1ccccc1F)c1ccc2ccccc2c1	65% and 100%
O=C(NCCN1CCC2(CC1)C(=O)NCN2C(=O)C1CC1)c1ccc2ccccc2c1	100%
O=C(NCCN1CCC2(CC1)C(=O)NCN2Cc1ccccc1Br)c1ccc2ccccc2c1	100%
O=C(NCCN1CCC2(CC1)NCNC2=O)c1ccc2ccccc2c1	22% (inactive)
COc1cccc(C(=O)N2CNC(=O)C23CCN(CCNC(=O)c2ccc4ccccc4c2)CC3)c1	85%
O=C(NCCN1CCC2(CC1)C(=O)NCN2CC1CC1)c1ccc2ccccc2c1	100%
O=C(NCCN1CCC2(CC1)C(=O)NCN2Cc1ccccc1Cl)c1ccc2ccccc2c1	100%
O=C(NCCN1CCC2(CC1)C(=O)NCN2Cc1ccncc1)c1ccc2ccccc2c1	100%
O=C(NCCN1CCC2(CC1)C(=O)NCN2C(=O)c1ccccc1)c1ccc2ccccc2c1	82%
O=C(NCCN1CCC2(CC1)C(=O)NCN2Cc1cccc2ccccc12)c1ccc2ccccc2c1	100%
O=C(NCCN1CCC2(CC1)C(=O)NCN2C(=O)c1cccc(F)c1)c1ccc2ccccc2c1	84%
